Laboratory results published in patent publication US10350309B2, “Methods of preparing ophthalmic formulations and uses of same” (Cognoptix, Inc., priority 2013, dated 2019).

Assays:
[1] = HPLC analysis of concentration and degradation of Compound 11 in mineral oil mixtures after ball milling agitation; type: physicochemical
Procedure: The following HPLC method was used to analyze whether the concentration of fluorescent molecular rotor compounds in mixtures of mineral oil and Compound 11 was consistent with the expected concentration of the mixture. The HPLC analysis was also used to evaluate degradation of Compound 11 in the mixture. The HPLC instrument used was a Waters 2695 Separation Module, or equivalent containing a pump capable of delivering a gradient flow rate of 1.0 mL/min or equivalent and a Waters 2487 Multiwavelength Detector, or dual wavelength detector capable of detection at 215 nm and 320 nm, or equivalent. The column used was a Waters Deltapak C18 column, 5 μm, 3.9×150 mm, (Waters Corp., Milford, Mass., Catalog No.: WAT011793). The flow rate was 1.0 mL/min with detection at a wavelength of 215 nm and a column temperature of 25° C. The injection volume used for the concentration sample evaluation was 20 μL and for the related substances sample evaluation was 50 μL. The mobile phases were A: 0.1% trifluoroacetic acid in water, C: methanol, and D: ethanol, and the gradient program shown in Table 2 was used for the HPLC method.
In a mixture sample compared to a standard sample, increased relative peak area of the related substance peak (RT of 3.8 min, Table 3) compared to the peak area of Compound 11 (RT of 8.5 min, Table 3) would indicate degradation of Compound 11. The concentration in the mixture sample of Compound 11 was determined by analyzing the HPLC peak with a retention time of 8.5 min (Table 3) compared to a standard sample of Compound 11.
However, the concentration of the mixture of Compound 11 and heavy mineral oil after ball milling agitation with YTZ® grinding media beads of an average diameter of 0.5 mm was determined by HPLC (RT of 8.5 min, Table 3) to be 4.75 mg/g as compared to an expected concentration of 48.12 mg/g (504.3 mg/10.48 g, mineral oil and Compound 11). […] The concentration as measured by HPLC of the mixture of Compound 11 and heavy mineral oil after ball milling agitation with beads of an average diameter of 5 mm was 44.9 mg/g as compared to an expected concentration of 47.98 mg/g (504.8 mg/10.52 g, mineral oil and Compound 11), which was within the acceptable range.

[2] = Microscopic examination of mixture after ball milling agitation (particle size, uniformity); type: physicochemical; conditions: heavy mineral oil, ball milling with 5 mm grinding media beads
Procedure: Microscopic examination of mixtures after ball milling can be used to assess uniformity and to estimate the particle size of the fluorescent molecular rotor compounds. Microscopic examination of the mixtures containing Compound 11 were performed using a compound optical microscope with a calibrated eyepiece micrometer, or reticle. For example, the eyepiece micrometer, reticle, can be aligned and calibrated with the stage micrometer by aligning the zero line of the reticle with the zero line of the stage micrometer, and the ratios between the micrometers or scales can be used to determine sizes and distances.

SMILES: COCCOCCOCCOC(=O)/C(C#N)=C/c1ccc2cc(N3CCCCC3)ccc2c1 [Compound 11]
- concentration of the mixture determined by HPLC ([1]; heavy mineral oil, ball milling with YTZ beads of average diameter 0.5 mm, expected 48.12 mg/g): 4.75 mg/g
- concentration of the mixture measured by HPLC ([1]; heavy mineral oil, ball milling with beads of average diameter 5 mm, expected 47.98 mg/g): 44.9 mg/g
- degradation of Compound 11 based on changes in the related substance peak (RT 3.8 min) ([1]; mixture in heavy mineral oil, after ball milling agitation, HPLC): no significant degradation
- degradation of Compound 11 as analyzed by HPLC ([1]; mixture in heavy mineral oil, ball milling agitation with YTZ 5 mm beads): without degradation
- particle diameter by microscopic examination [2]: approximately 5 microns
